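48-hour exposure; five concentrations; linearly interpolated endpoints. GI50 marks 50% less growth. TGI marks complete inhibition of growth.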
Key:
Test in all cases: NCI-60 cell line screen, 48 h
HOP-92 NSCLC = tested on: HOP-92 NSCLC
SK-MEL-5 melanoma = tested on: SK-MEL-5 melanoma
SN12C renal = tested on: SN12C renal
KM12 colon = tested on: KM12 colon
SF-268 CNS = tested on: SF-268 CNS
HCC-2998 colon = tested on: HCC-2998 colon
UO-31 renal = tested on: UO-31 renal
HT29 colon = tested on: HT29 colon
COLO 205 colon = tested on: COLO 205 colon
SW-620 colon = tested on: SW-620 colon
A498 renal = tested on: A498 renal
MALME-3M melanoma = tested on: MALME-3M melanoma
T-47D breast = tested on: T-47D breast
NCI-H522 lung = tested on: NCI-H522 lung
NCI-H23 lung = tested on: NCI-H23 lung
CCRF-CEM leukemia = tested on: CCRF-CEM leukemia
M14 melanoma = tested on: M14 melanoma
SR leukemia = tested on: SR leukemia
TK-10 renal = tested on: TK-10 renal
MDA-MB-231 breast = tested on: MDA-MB-231 breast
U251 CNS = tested on: U251 CNS
A549 NSCLC = tested on: A549 NSCLC
SNB-75 CNS = tested on: SNB-75 CNS
CAKI-1 renal = tested on: CAKI-1 renal
OVCAR-4 ovarian = tested on: OVCAR-4 ovarian
OVCAR-5 ovarian = tested on: OVCAR-5 ovarian
K-562 leukemia = tested on: K-562 leukemia
786-0 renal = tested on: 786-0 renal
RPMI-8226 leukemia = tested on: RPMI-8226 leukemia
SK-MEL-28 melanoma = tested on: SK-MEL-28 melanoma
MOLT-4 leukemia = tested on: MOLT-4 leukemia
NCI-H226 lung = tested on: NCI-H226 lung
MCF7 breast = tested on: MCF7 breast
NCI/ADR-RES ovarian = tested on: NCI/ADR-RES ovarian
SK-MEL-2 melanoma = tested on: SK-MEL-2 melanoma
UACC-62 melanoma = tested on: UACC-62 melanoma
DU-145 prostate = tested on: DU-145 prostate
ACHN renal = tested on: ACHN renal
SF-295 CNS = tested on: SF-295 CNS
HCT-116 colon = tested on: HCT-116 colon
OVCAR-8 ovarian = tested on: OVCAR-8 ovarian
IGROV1 ovarian = tested on: IGROV1 ovarian
SK-OV-3 ovarian = tested on: SK-OV-3 ovarian
LOX IMVI melanoma = tested on: LOX IMVI melanoma
HCT-15 colon = tested on: HCT-15 colon
NCI-H460 lung = tested on: NCI-H460 lung
RXF 393 renal = tested on: RXF 393 renal
MDA-MB-435 = tested on: MDA-MB-435
HOP-62 NSCLC = tested on: HOP-62 NSCLC
SF-539 CNS = tested on: SF-539 CNS
SNB-19 CNS = tested on: SNB-19 CNS
HS 578T breast = tested on: HS 578T breast
BT-549 breast = tested on: BT-549 breast
PC-3 prostate = tested on: PC-3 prostate
OVCAR-3 ovarian = tested on: OVCAR-3 ovarian
HL-60(TB) leukemia = tested on: HL-60(TB) leukemia
UACC-257 melanoma = tested on: UACC-257 melanoma

SMILES: CN[C@H](C#Cc1c(F)ccc2c1/C(=C/c1[nH]ccc1OC)C(=O)N2)CO
- GI50 (HOP-92 NSCLC): 3.17 µM
- TGI (HOP-92 NSCLC): 11.8 µM
- GI50 (SK-MEL-5 melanoma): 0.511 µM
- TGI (SK-MEL-5 melanoma): 1.92 µM
- GI50 (SN12C renal): 0.2 µM
- TGI (SN12C renal): 25 µM
- GI50 (KM12 colon): 0.036 µM
- TGI (KM12 colon): 1.76 µM
- GI50 (SF-268 CNS): 0.509 µM
- TGI (SF-268 CNS): 2.21 µM
- GI50 (HCC-2998 colon): 0.746 µM
- TGI (HCC-2998 colon): 3.27 µM
- GI50 (UO-31 renal): 0.335 µM
- TGI (UO-31 renal): 2.54 µM
- GI50 (HT29 colon): 0.438 µM
- TGI (HT29 colon): 2.39 µM
- GI50 (COLO 205 colon): 0.897 µM
- TGI (COLO 205 colon): 3.39 µM
- GI50 (SW-620 colon): 0.476 µM
- TGI (SW-620 colon): 2.71 µM
- GI50 (A498 renal): 0.452 µM
- TGI (A498 renal): 3.35 µM
- GI50 (MALME-3M melanoma): 1.46 µM
- TGI (MALME-3M melanoma): 5.06 µM
- GI50 (T-47D breast): 2.27 µM
- TGI (T-47D breast): 13.6 µM
- GI50 (NCI-H522 lung): 0.659 µM
- TGI (NCI-H522 lung): 2.45 µM
- GI50 (NCI-H23 lung): 0.657 µM
- TGI (NCI-H23 lung): 3.11 µM
- GI50 (CCRF-CEM leukemia): 0.349 µM
- TGI (CCRF-CEM leukemia): 1.83 µM
- GI50 (M14 melanoma): 0.403 µM
- TGI (M14 melanoma): 3.14 µM
- GI50 (SR leukemia): 0.109 µM
- TGI (SR leukemia): 1.91 µM
- GI50 (TK-10 renal): 0.247 µM
- TGI (TK-10 renal): 2.25 µM
- GI50 (MDA-MB-231 breast): 0.787 µM
- TGI (MDA-MB-231 breast): 3 µM
- GI50 (U251 CNS): 0.323 µM
- TGI (U251 CNS): 2.94 µM
- GI50 (A549 NSCLC): 0.354 µM
- TGI (A549 NSCLC): 2.82 µM
- GI50 (SNB-75 CNS): 0.0777 µM
- TGI (SNB-75 CNS): 3.88 µM
- GI50 (CAKI-1 renal): 0.0314 µM
- TGI (CAKI-1 renal): 0.736 µM
- GI50 (OVCAR-4 ovarian): 0.631 µM
- TGI (OVCAR-4 ovarian): 4.22 µM
- GI50 (OVCAR-5 ovarian): 0.917 µM
- TGI (OVCAR-5 ovarian): 3.71 µM
- GI50 (K-562 leukemia): 0.989 µM
- TGI (K-562 leukemia): 5.89 µM
- GI50 (786-0 renal): 0.462 µM
- TGI (786-0 renal): 4.18 µM
- GI50 (RPMI-8226 leukemia): 0.689 µM
- TGI (RPMI-8226 leukemia): 1.8 µM
- GI50 (SK-MEL-28 melanoma): 0.646 µM
- TGI (SK-MEL-28 melanoma): 4.31 µM
- GI50 (MOLT-4 leukemia): 0.386 µM
- TGI (MOLT-4 leukemia): 3.8 µM
- GI50 (NCI-H226 lung): 0.41 µM
- TGI (NCI-H226 lung): 1.72 µM
- GI50 (MCF7 breast): 0.569 µM
- TGI (MCF7 breast): 3.68 µM
- GI50 (NCI/ADR-RES ovarian): 0.973 µM
- TGI (NCI/ADR-RES ovarian): 6.58 µM
- GI50 (SK-MEL-2 melanoma): 0.199 µM
- TGI (SK-MEL-2 melanoma): 0.749 µM
- GI50 (UACC-62 melanoma): 0.671 µM
- TGI (UACC-62 melanoma): 4.6 µM
- GI50 (DU-145 prostate): 0.411 µM
- TGI (DU-145 prostate): 3 µM
- GI50 (ACHN renal): 0.115 µM
- TGI (ACHN renal): 2.71 µM
- GI50 (SF-295 CNS): 0.946 µM
- TGI (SF-295 CNS): 25 µM
- GI50 (HCT-116 colon): 0.136 µM
- TGI (HCT-116 colon): 5.21 µM
- GI50 (OVCAR-8 ovarian): 0.551 µM
- TGI (OVCAR-8 ovarian): 4.25 µM
- GI50 (IGROV1 ovarian): 0.682 µM
- TGI (IGROV1 ovarian): 3.32 µM
- GI50 (SK-OV-3 ovarian): 0.117 µM
- TGI (SK-OV-3 ovarian): 8.12 µM
- GI50 (LOX IMVI melanoma): 0.344 µM
- TGI (LOX IMVI melanoma): 2.54 µM
- GI50 (HCT-15 colon): 0.117 µM
- TGI (HCT-15 colon): 3.02 µM
- GI50 (NCI-H460 lung): 0.358 µM
- TGI (NCI-H460 lung): 2.58 µM
- GI50 (RXF 393 renal): 0.0855 µM
- TGI (RXF 393 renal): 0.704 µM
- GI50 (MDA-MB-435): 0.354 µM
- TGI (MDA-MB-435): 2.82 µM
- GI50 (HOP-62 NSCLC): 0.628 µM
- TGI (HOP-62 NSCLC): 2.42 µM
- GI50 (SF-539 CNS): 0.431 µM
- TGI (SF-539 CNS): 1.53 µM
- GI50 (SNB-19 CNS): 1.06 µM
- TGI (SNB-19 CNS): 21 µM
- GI50 (HS 578T breast): 0.212 µM
- TGI (HS 578T breast): 12.9 µM
- GI50 (BT-549 breast): 1.15 µM
- TGI (BT-549 breast): 4.15 µM
- GI50 (PC-3 prostate): 1.03 µM
- TGI (PC-3 prostate): 10.8 µM
- GI50 (OVCAR-3 ovarian): 0.869 µM
- TGI (OVCAR-3 ovarian): 3.1 µM
- GI50 (HL-60(TB) leukemia): 0.513 µM
- TGI (HL-60(TB) leukemia): 2.01 µM
- GI50 (UACC-257 melanoma): 1.52 µM
- TGI (UACC-257 melanoma): 4.93 µM

— PubChem BioAssay (NCI)
